Data as given in patent publication US8652533B2 (priority 2004, dated 2014).

How the values were obtained:
SARS (Toronto-2 Strain) = assay: microbe, parasite or virus in culture; assay type: cell-based, SARS coronavirus (SARSCoV); conditions: for ACTIVITY: conc. 1 μM; for cytoprotective effect in the assay (in words): tested concentration (1 μM)
SARSCoV, strain Urbani = assay type: cell-based, SARS coronavirus (SARSCoV)

Oc1cc(O)c2c(c1)O[C@H](c1ccc(O)c(O)c1)[C@@H](O)C2 [(+)-Catechin]
ACTIVITY (SARS (Toronto-2 Strain)): Inactive
cytoprotective effect in the assay (in words) (SARS (Toronto-2 Strain)): not

Oc1cc(O)c2c(c1)O[C@@H](c1ccc(O)c(O)c1)[C@@H](O)C2 [(+)-Epicatechin]
ACTIVITY (SARS (Toronto-2 Strain)): Inactive

Oc1cc(O)c2c(c1)O[C@H](c1cc(O)c(O)c(O)c1)[C@@H](O)C2 [(+)-Gallocatechin]
ACTIVITY (SARS (Toronto-2 Strain)): Inactive
cytoprotective effect in the assay (in words) (SARS (Toronto-2 Strain)): not

O=C(O[C@@H]1Cc2c(O)cc(O)cc2O[C@H]1c1ccc(O)c(O)c1)c1cc(O)c(O)c(O)c1 [(−)-Catechin Gallate]
ACTIVITY (SARS (Toronto-2 Strain)): Active

O=C(O[C@@H]1Cc2c(O)cc(O)cc2O[C@@H]1c1ccc(O)c(O)c1)c1cc(O)c(O)c(O)c1 [(−)-Epicatechin Gallate]
ACTIVITY (SARS (Toronto-2 Strain)): Active
cytoprotective effect in the assay (in words) (SARS (Toronto-2 Strain)): had cytoprotective effect

Oc1cc(O)c2c(c1)O[C@H](c1ccc(O)c(O)c1)[C@H](O)C2 [(−)-Epicatechin]
ACTIVITY (SARS (Toronto-2 Strain)): Inactive
cytoprotective effect in the assay (in words) (SARS (Toronto-2 Strain)): not

Oc1cc(O)c2c(c1)O[C@H](c1cc(O)c(O)c(O)c1)[C@H](O)C2 [(−)-Epigallocatechin]
ACTIVITY (SARS (Toronto-2 Strain)): Inactive
cytoprotective effect in the assay (in words) (SARS (Toronto-2 Strain)): not

Oc1cc(O)c2c(c1)O[C@@H](c1cc(O)c(O)c(O)c1)[C@H](O)C2 [(−)-Gallocatechin]
ACTIVITY (SARS (Toronto-2 Strain)): Inactive

O=C(O[C@@H]1Cc2c(O)cc(O)cc2O[C@@H]1c1cc(O)c(=O)c2c(O)c(O)cc([C@H]3Oc4cc(O)cc(O)c4C[C@H]3OC(=O)c3cc(O)c(O)c(O)c3)c2c1)c1cc(O)c(O)c(O)c1 [Theaflavindigallate]
inhibition at 1 µM (SARS (Toronto-2 Strain); Severe acute respiratory syndrome coronavirus, Vero 76, 72 h, read-out: % CPE (INHIBITION)): 100%
ACTIVITY (SARS (Toronto-2 Strain)): Active

O=c1c(O)cc([C@H]2Oc3cc(O)cc(O)c3C[C@H]2O)cc2c([C@H]3Oc4cc(O)cc(O)c4C[C@H]3O)cc(O)c(O)c12 [free Theaflavin]
ACTIVITY (SARS (Toronto-2 Strain)): Active

(−)-Catechin
ACTIVITY (SARS (Toronto-2 Strain)): Inactive

(−)-Epigallocatechin Gallate
ACTIVITY (SARS (Toronto-2 Strain)): Active
cytoprotective effect in the assay (in words) (SARS (Toronto-2 Strain)): had cytoprotective effect

(−)-Gallocatechin Gallate
ACTIVITY (SARS (Toronto-2 Strain)): Active
cytoprotective effect in the assay (in words) (SARS (Toronto-2 Strain)): had cytoprotective effect

Theaflavindigallate-A
ACTIVITY (SARS (Toronto-2 Strain)): Inactive

Theaflavindigallate-B
ACTIVITY (SARS (Toronto-2 Strain)): Inactive

catechin
direct virucidal effect (in words) (SARSCoV, strain Urbani): very inhibitory to the virus
